Values joined by “and” are separate entries in the source; they are usually repeats but may differ in a detail not shown here. Equal values may be shown once.
Assays:
[1] = biological target: T1, DDR2 (Nonlabens (Donghaeana) dokdonensis rhodopsin, sodium-ion-pumping rhodopsin) (Nonlabens dokdonensis, UniProt A0ABX5Q1D8); assay: absorption spectroscopy of the pigment; type: binding; settings: covalent, protonated Schiff base to lysine; pH 8, room temperature
T1 construct: gene LX97_00829; pentamer at neutral pH
T1 sequence (A0ABX5Q1D8 1-279): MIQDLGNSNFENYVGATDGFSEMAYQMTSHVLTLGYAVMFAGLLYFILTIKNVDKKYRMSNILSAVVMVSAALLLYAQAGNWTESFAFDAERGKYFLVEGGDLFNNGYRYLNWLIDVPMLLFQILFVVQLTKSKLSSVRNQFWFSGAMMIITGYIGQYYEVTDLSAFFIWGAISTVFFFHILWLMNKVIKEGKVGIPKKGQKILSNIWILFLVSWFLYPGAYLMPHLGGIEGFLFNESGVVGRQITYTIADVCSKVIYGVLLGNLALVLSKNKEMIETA

[2] = biological target: Nonlabens (Donghaeana) dokdonensis rhodopsin (DDR2) (Nonlabens (Donghaeana) dokdonensis); assay: SEC; AKTA FPLC; DDM-solubilised DDR2 at pH 7 or 9; apparent masses from soluble protein markers; 0.06% DDM, 300 mM NaCl; also run with salinixanthin bound (oligomeric form not affected)

Compound | absorption spectroscopy of the pigment [1] | stoichiometry N [2]
CC1=C(/C=C/C(C)=C/C=C/C(C)=C/C=O)C(C)(C)CCC1 [all-trans retinal] | absorption of the all-trans retinal chromophore covalently bound to the protein | 
Nonlabens (Donghaeana) dokdonensis rhodopsin (DDR2) (natural protein) |  | 5 and 10

— PMC10026069, “Retinal–Carotenoid Interactions in a Sodium-Ion-Pumping Rhodopsin: Implications on Oligomerization and Thermal Stability” (The Journal of Physical Chemistry. B, 2023)
